Test results reported in patent US12195745B2, “Compositions and methods for modulating transduction efficiency of adeno-associated viruses” (Massachusetts Eye and Ear Infirmary, priority 2018, dated 2025).

Tests used:
Huh7 cells [1] = assay: Neuraminidase inhibitor pre-treatment of Huh7 cells followed by AAV transduction (luciferase); format: cell-based, human; conditions: for effect on transduction, short pre-treatment: 1 hour pre-treatment; for effect on AAV4 entry / effect on AAV5 transduction / effect on Anc80 transduction / decrease of rh32.33 transduction: 24 hours pre-treatment, 10,000 VG/cell; for decrease of rh32.33 transduction: CMV.Luciferase.SVPA
Experimental: All luciferase transduction assays were done by seeding 10,000 cells per well in black-bottom 96 well plates overnight. When indicated, cells were pre-incubated with 200 pfu/cell of WT hAd5 (University of Pennsylvania Vector core) in D10 for two hours, then hAd5-containing medium was removed prior to transduction. Cells were transduced with either AAV at 1×10^4 VG/cell in 50 μL serum-free DMEM (AAVR rescue experiments) for 1 h at 37° C., then D10 was added to a total volume of 200 μL, or 100 μl per well of crude virus prep (chimeric, and point mutant capsid experiments) was added for 1 h at 37° C., removed, then D10 was added. Transduction levels were analyzed by luciferase assay 48 hours post-transduction.
Two days post-transduction, cell culture medium was removed and cells were lysed in 20 μL per well of 1× Reporter Lysis Buffer (Promega, Cat#), then frozen at −80° C. After thaw, ffLuc expression was measured in Relative Light Units/s on a Synergy H1 Hybrid Multi-Mode Microplate reader using 100 μL luciferin buffer [200 mM Tris pH 8, 10 mM MgCl2, 300 μM ATP, 1× Firefly Luciferase signal enhancer (Thermo Cat#16180), and 150 μg/mL D-Luciferin].
Because NEU1 is an enzyme and CTSA, also identified in the entry screen (FIG. 5C), is required for maintaining the catalytically active conformation of NEU1 (D'Azzo et al., 1982, PNAS USA, 79:4535-9; and Vinogradova et al., 1998, Biochem. J. 330(Pt 2):641-50), whether enzymatic activity of NEU1 is required for its function was tested in rh32.33 and AAV4 entry. Two different sialic acid analog neuraminidase inhibitor compounds were used, Zanamivir (von Itzstein et al., 1993, Nature, 363:418-23) and DANA (Meindl et al., 1974, Virology, 58:457-63), to do a dose response on Huh7 cells and assess the effect on entry of different AAVR dependent and AAVR independent serotypes. Two different AAVR-dependent serotypes, AAV5 and Anc80, and two AAVR-independent serotypes, rh32.33 and AAV4, were tested. Importantly, AAV4 and AAV5 were examined because both AAVs use sialic acid as an attachment factor (Kaludov et al., 2001, J. Virol., 75:6884-93; and Walters et at, 2001, J. Biol. Chem., 276:20610-6) yet differ in their AAVR dependence.
Briefly, 10,000 cells per well were plated in 96-well plates 1 day prior to inhibitor treatment. […] When indicated, control or inhibitor treated cells were treated with 50 mU/mL Neuraminidase from Vibrio cholera Type III (Sigma Aldrich, Cat#N7885) in serum-free DMEM, followed by AAV transduction as described.

Huh7 cells [2] = assay: Inhibitor pre-treatment, then Neuraminidase from Vibrio cholera, then AAV transduction; format: cell-based, human; conditions: 2 mM inhibitor 24 h, then 2 h Neuraminidase from Vibrio cholera
Experimental: Briefly, 10,000 cells per well were plated in 96-well plates 1 day prior to inhibitor treatment. Cells were incubated with the indicated concentration of Zanamivir (Sigma SML0492) or DANA (EMD Millipore 252926) for 24 hours prior to transduction in a total volume of 100 μL D10. When indicated, control or inhibitor treated cells were treated with 50 mU/mL Neuraminidase from Vibrio cholera Type III (Sigma Aldrich, Cat#N7885) in serum-free DMEM, followed by AAV transduction as described.
Because NEU1 and CTSA play a role in cellular glycosylation states, confirmation was desired that the entry defect was not due to an overall alteration in glycosylation at the cell surface, leading to an attachment, defect. To do this, cells were first pre-treated for 24 h with Zanamivir or DANA, followed by treatment with a neuraminidase from Vibrio cholera to remove any sialic acid that may have accumulated at the cell surface due to NEU1 inhibition.
The indicated pre-chilled vector was then added to cells on ice, incubated for 1 hour for the vectors to undergo attachment, unbound vector was washed away using ice-cold PBS, then transduction was allowed to proceed and vector transduction assessed in the different treatment conditions by fold-change relative to untreated control cells via luciferase assay. […]

Row | SMILES | effect on transduction, short pre-treatment (Huh7 cells [1]) | effect on AAV4 entry (Huh7 cells [1]) | effect on AAV5 transduction (Huh7 cells [1]) | effect on Anc80 transduction (Huh7 cells [1]) | decrease of rh32.33 transduction (Huh7 cells [1]) | reversal of rh32.33 entry inhibition after neuraminidase treatment (Huh7 cells [2])
1 | CC(=O)N[C@H]1[C@H]([C@H](O)[C@H](O)CO)OC(C(=O)O)=C[C@@H]1O [DANA] | did not show any decrease in transduction | slightly decreased AAV4 entry | Neither of the AAVR-dependent serotypes, AAV5 or Anc80, showed a decrease in transduction | Neither of the AAVR-dependent serotypes, AAV5 or Anc80, showed a decrease in transduction | roughly ten-fold | a reversal of entry inhibition was not observed
2 | CC(=O)N[C@H]1[C@H]([C@H](O)[C@H](O)CO)OC(C(=O)O)=C[C@@H]1N=C(N)N [Zanamivir] | did not show any decrease in transduction | slightly decreased AAV4 entry | Neither of the AAVR-dependent serotypes, AAV5 or Anc80, showed a decrease in transduction | Neither of the AAVR-dependent serotypes, AAV5 or Anc80, showed a decrease in transduction | roughly ten-fold | a reversal of entry inhibition was not observed
